From US9840478B2 (MERCK SHARP & DOHME CORP., priority 2013, dated 2017)

Each molecule was assayed on HIV-1 (H9IIIB strain) (assay: Cell-based HIV infection assay using a reporter (Cell-Based), MT4-GFP cells). Conditions: Human immunodeficiency virus 1, MT4-GFP cells infected with HIV-1 H9IIIB; 50% normal human serum; mean of at least two independent experiments; read-out: Cell-based IP.
In short: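 IC50 from 4-parameter dose-response of % viral growth inhibition, using the 48 h/24 h infected-cell ratio scaled between DMSO and a protease/integrase/NNRTI triple-drug control. Assay used MT4 cells with HIV-LTR-GFP reporter, pre-infected 24 h with HIV-1 H9IIIB, in 50% normal human serum.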

Row | SMILES | IC50 [µM]
1 | CN(CC(F)(F)F)S(=O)(=O)N1CCNC[C@@H]1CCc1c(F)cccc1NC(=O)[C@@H](N)C(c1ccc(F)cc1)c1ccc(F)cc1 [Example 68, 4-fluoro-N-[3-fluoro-2-(2-{(2S)-1-[methyl(2,2,2-trifluoroethyl)sulfamoyl]piperazin-2-yl}ethyl)phenyl]-β-(4-fluorophenyl)-L-phenylalaninamide] | 1.8
2 | O=C(Nc1cccc(F)c1CC[C@H]1CNCCN1S(=O)(=O)c1ccccc1)[C@H](O)C(c1ccccc1)c1ccccc1 (single isomer, unassigned) [Example 365] | 0.068
3 | COc1ccc([C@H](c2ccc(Cl)cc2)[C@H](N)C(=O)Nc2cccc(F)c2CC[C@H]2CNC[C@H](C)N2S(=O)(=O)c2ccc(OC(F)(F)F)cc2)cn1 [Example 188, (βS)-4-chloro-N-(3-fluoro-2-{2-[(2S,6S)-6-methyl-1-{[4-(trifluoromethoxy)phenyl]sulfonyl}piperazin-2-yl]ethyl}phenyl)-β-(6-methoxypyridin-3-yl)-L-phenylalaninamide] | 0.055
4 | COC(=O)N[C@H](C(=O)Nc1cccc(F)c1CC[C@H]1CNCCN1S(=O)(=O)c1ccccc1)[C@@H](c1ccc(Cl)cc1)c1cc(F)cc(F)c1 [Example 59, (βS)-4-chloro-β-(3,5-difluorophenyl)-N-(3-fluoro-2-{2-[(2S)-1-(phenylsulfonyl)piperazin-2-yl]ethyl}phenyl)-Nα-(methoxycarbonyl)-L-phenylalaninamide] | 0.029
5 | COC(=O)N[C@H](C(=O)Nc1cccc(F)c1CC[C@H]1CNC[C@H](C)N1S(=O)(=O)c1ccc(OC)cc1)[C@H](c1cccc(F)c1)c1cccc(Cl)c1 [Example 163, (βR)-3-chloro-N-[3-fluoro-2-(2-{(2S,6S)-1-[(4-methoxyphenyl)sulfonyl]-6-methylpiperazin-2-yl}ethyl)phenyl]-β-(3-fluorophenyl)-Nα-(methoxycarbonyl)-L-phenylalaninamide] | 0.02
6 | COC(=O)N[C@H](C(=O)Nc1cccc(F)c1CC[C@H]1CNC[C@H](C)N1S(=O)(=O)C1CC1)[C@H](c1cccc(F)c1)c1cccc(Cl)c1 [Example 175, (βR)-3-chloro-N-(2-{2-[(2S,6S)-1-(cyclopropylsulfonyl)-6-methylpiperazin-2-yl]ethyl}-3-fluorophenyl)-β-(3-fluorophenyl)-Nα-(methoxycarbonyl)-L-phenylalaninamide] | 0.11
7 | C[C@H]1CNC[C@H](CCc2c(F)cccc2NC(=O)[C@@H](N)[C@@H](c2ccc(F)c(F)c2)C2CCOCC2)N1S(=O)(=O)c1ccccc1 [Example 289, (βR)-3,4-difluoro-N-(3-fluoro-2-{2-[(2S,6S)-6-methyl-1-(phenylsulfonyl)piperazin-2-yl]ethyl}phenyl)-β-(tetrahydro-2H-pyran-4-yl)-L-phenylalaninamide] | 0.023
8 | COC(=O)N[C@H](C(=O)Nc1cccc(F)c1CC[C@H]1CNC[C@H](C)N1S(=O)(=O)c1ccc(OC)cc1)[C@@H](c1ccc(Cl)cc1)C(C)C [Example 125, (βR)-4-chloro-N-[3-fluoro-2-(2-{(2S,6S)-1-[(4-methoxyphenyl)sulfonyl]-6-methylpiperazin-2-yl}ethyl)phenyl]-Nα-(methoxycarbonyl)-β-(1-methylethyl)-L-phenylalaninamide] | 0.018
9 | C[C@H]1CNC[C@H](CCc2c(F)cncc2NC(=O)[C@@H](N)[C@@H](c2ccc(F)cc2)c2cc(F)cc(F)c2)N1S(=O)(=O)C1CC1 [Example 197, (BS)-N-(4-{2-[(2S,6S)-1-(cyclopropylsulfonyl)-6-methylpiperazin-2-yl]ethyl}-5-fluoropyridin-3-yl)-β-(3,5-difluorophenyl)-4-fluoro-L-phenylalaninamide] | 0.018
10 | COC(=O)N[C@H](C(=O)Nc1cccc(F)c1CC[C@H]1CNC[C@H](C)N1S(=O)(=O)C1CC1)[C@@H](c1ccc(F)cc1)C1CCOCC1 [Example 115, (βR)-N-(2-{2-[(2S,6S)-1-(cyclopropylsulfonyl)-6-methylpiperazin-2-yl]ethyl}-3-fluorophenyl)-4-fluoro-Nα-(methoxycarbonyl)-β-(tetrahydro-2H-pyran-4-yl)-L-phenylalaninamide] | 0.045
11 | CC[C@H]1CNC[C@H](CCc2c(F)cccc2NC(=O)[C@@H](N)[C@@H](c2ccc(F)cc2)c2cc(F)cc(F)c2)N1S(C)(=O)=O [Example 262, (βS)-β-(3,5-difluorophenyl)-N-(2-{2-[(2S,6S)-6-ethyl-1-(methylsulfonyl)piperazin-2-yl]ethyl}-3-fluorophenyl)-4-fluoro-L-phenylalaninamide] | 0.025
12 | N[C@H](C(=O)NC1CC(F)(F)CC1CC[C@H]1CNCCN1S(=O)(=O)c1ccccc1)[C@H](c1ccc(Cl)cc1)C1CCOCC1 (stereo partly drawn) [Example 360, (betaS)-4-chloro-N-(4,4-difluoro-2-{2-[(2S)-1-(phenylsulfonyl)piperazin-2-yl]ethyl}cyclopentyl)-beta-(tetrahydro-2H-pyran-4-yl)-L-phenylalaninamide] | 0.61
13 | O=C(C[C@@H](c1ccc(F)cc1)c1cc(F)cc(F)c1)Nc1cncc(F)c1CC[C@H]1CNCCN1S(=O)(=O)c1ccccn1 [Example 304, (3S)-3-(3,5-difluorophenyl)-3-(4-fluorophenyl)-N-(5-fluoro-4-{2-[(2S)-1-(pyridin-2-ylsulfonyl)piperazin-2-yl]ethyl}pyridin-3-yl)propanamide] | 0.0036
14 | O=C(CC1(c2ccc(Cl)cc2)CCOCC1)Nc1cncc(F)c1CC[C@H]1CNCCN1S(=O)(=O)C1CC1 [Example 62, 2-[4-(4-chlorophenyl)tetrahydro-2H-pyran-4-yl]-N-(4-{2-[(2S)-1-(cyclopropylsulfonyl)piperazin-2-yl]ethyl}-5-fluoropyridin-3-yl)acetamide] | 0.52
15 | COC(=O)N[C@H](C(=O)Nc1cccc(F)c1CC[C@H]1CNC[C@H](C)N1S(=O)(=O)C1CC1)[C@@H](c1ccc(Cl)cc1)c1cc(F)cc(F)c1 [Example 201, (βS)-4-chloro-N-(2-{2-[(2S,6S)-1-(cyclopropylsulfonyl)-6-methylpiperazin-2-yl]ethyl}-3-fluorophenyl)-β-(3,5-difluorophenyl)-Nα-(methoxycarbonyl)-L-phenylalaninamide] | 0.016
16 | C[C@@H]1CNC[C@H](CCc2c(F)cccc2NC(=O)[C@@H](N)[C@H](c2cccc(F)c2)c2cccc(Cl)c2)N1S(C)(=O)=O [Example 169, (βR)-3-chloro-N-(3-fluoro-2-{2-[(2S,6R)-6-methyl-1-(methylsulfonyl)piperazin-2-yl]ethyl}phenyl)-β-(3-fluorophenyl)-L phenylalaninamide] | 0.17
17 | COC(=O)N[C@H](C(=O)Nc1cncc(F)c1CC[C@H]1CNC[C@H](C)N1S(=O)(=O)C1CC1)[C@@H](c1ccc(F)cc1)c1cc(F)cc(F)c1 [Example 210, (βS)-N-(4-{2-[(2S,6S)-1-(cyclopropylsulfonyl)-6-methylpiperazin-2-yl]ethyl}-5-fluoropyridin-3-yl)-β-(3,5-difluorophenyl)-4-fluoro-Nα-(methoxycarbonyl)-L-phenylalaninamide] | 0.013
18 | CC(C)NS(=O)(=O)N1CCNC[C@@H]1CCc1c(F)cncc1NC(=O)C[C@@H](c1ccc(F)cc1)c1cc(F)cc(F)c1 [Example 324, (3S)-3-(3,5-difluorophenyl)-N-[5-fluoro-4-(2-{(2S)-1-[(1-methylethyl)sulfamoyl]piperazin-2-yl}ethyl)pyridin-3-yl]-3-(4-fluorophenyl)propanamide] | 0.04
19 | COC(=O)N[C@H](C(=O)N[C@H]1CCC[C@@H]1CC[C@H]1CNCCN1S(=O)(=O)c1ccccc1)C(c1ccc(F)cc1)c1ccc(F)cc1 [Example 350, Methyl ((S)-1,1-bis(4-fluorophenyl)-3-oxo-3-(((1S,2R)-2-(2-((S)-1-(phenylsulfonyl)piperazin-2-yl)ethyl)cyclopentyl)amino)propan-2-yl)carbamate] | 0.012
20 | N[C@H](C(=O)Nc1cccc(F)c1CC[C@H]1CNCCN1S(=O)(=O)c1ccccc1)[C@@H](c1ccc(Cl)cc1)C1CCS(=O)(=O)CC1 [Example 41, (βR)-4-chloro-β-(1,1-dioxidotetrahydro-2H-thiopyran-4-yl)-N-(3-fluoro-2-{2-[(2S)-1-(phenylsulfonyl)piperazin-2-yl]ethyl}phenyl)-L-phenylalaninamide] | 0.034
21 | N[C@H](C(=O)Nc1cncc(F)c1CC[C@H]1CNCCN1S(=O)(=O)c1ccccc1)C1(c2ccc(Cl)cc2)CCOCC1 [Example 70, (2S)-2-amino-2-[4-(4-chlorophenyl)tetrahydro-2H-pyran-4-yl]-N-(5-fluoro-4-{2-[(2S)-1-(phenylsulfonyl)piperazin-2-yl]ethyl}pyridin-3-yl)ethanamide] | 0.027
22 | COC(=O)N[C@H](C(=O)Nc1cccc(F)c1CC[C@H]1CNC[C@H](C)N1S(=O)(=O)C1CC1)[C@@H](c1cccc(Cl)c1)C(C)C [Example 216, (βR)-3-chloro-N-(2-{2-[(2S,6S)-1-(cyclopropylsulfonyl)-6-methylpiperazin-2-yl]ethyl}-3-fluorophenyl)-Nα-(methoxycarbonyl)-β-(1-methylethyl)-L-phenylalaninamide] | 1.3
23 | C[C@@H]1CNC[C@@H](CCc2c(F)cccc2NC(=O)CC(c2ccc(F)cc2)c2ccc(F)cc2)N1S(=O)(=O)c1ccccc1 [Example 91, N-(3-fluoro-2-{2-[(2R,6R)-6-methyl-1-(phenylsulfonyl)piperazin-2-yl]ethyl}phenyl)-3,3-bis(4-fluorophenyl) propanamide] | 1.7
24 | C[C@H]1CNC[C@H](CCc2c(F)cccc2NC(=O)[C@@H](N)C2(c3ccc(F)c(F)c3)CCOCC2)N1S(=O)(=O)c1ccccc1 [Example 292, (2S)-2-amino-2-[4-(3,4-difluorophenyl)tetrahydro-2H-pyran-4-yl]-N-(3-fluoro-2-{2-[(2S,6S)-6-methyl-1-(phenylsulfonyl)piperazin-2-yl]ethyl}phenyl)ethanamide] | 0.13
